Results from patent US20260232767A1, “INTERLEUKIN-23 RECEPTOR ANTAGONIST PEPTIDES FOR USE IN THE TREATMENT OF PSORIASIS” (Janssen Pharmaceutica NV, priority 2023, published 2026).

Test system: subjects with moderate-to-severe plaque psoriasis
Experiment: PSSD symptom and sign scores, Example 2
Type: in vivo, human
Settings: for Change from Baseline in PSSD Sign Score, LSMean / Change from Baseline in PSSD Symptom Score, LSMean: MMRM

SMILES: CC(=O)NCCCC[C@@H]1NC(=O)[C@H](Cc2c[nH]c3c(C)cccc23)NC(=O)[C@H]([C@@H](C)O)NC(=O)[C@H](CC(N)=O)NC(=O)[C@@H](NC(C)=O)C(C)(C)SSC(C)(C)[C@@H](C(=O)N[C@@H](Cc2ccc(OCCN)cc2)C(=O)N[C@@H](Cc2ccc3ccccc3c2)C(=O)NC2(C(=O)N[C@@H](CCC(=O)O)C(=O)N[C@@H](CC(N)=O)C(=O)N[C@@H](Cc3cccnc3)C(=O)N(C)CC(N)=O)CCOCC2)NC1=O [IL-23 receptor antagonist peptide, Ac-[Pen]*-N-T-[W(7-Me)]-[Lys(Ac)]-[Pen]*-Phe[4-(2-aminoethoxy)]-[2-Nal]-[THP]-E-N-[3-Pal]-Sarc-NH2 (*[Pen]-[Pen]* formdisulfidebond)]
- Subjects Achieving PSSD Sign Score 0 (%) (Week 16, 25 mg QD, Baseline Sign Score ≥1, N=43): (2.3%)
- Subjects Achieving PSSD Symptom Score 0 (%) (Week 16, 25 mg QD, Baseline Symptom Score ≥1, N=43): (16.3%)
- Change from Baseline in PSSD Sign Score, LSMean (Week 16, 25 mg QD): −31.7
- Change from Baseline in PSSD Symptom Score, LSMean (Week 16, 25 mg QD): −28.0
- Change from Baseline in PSSD Sign Score, Mean (Week 16, 50 mg QD): −42.7
- Change from Baseline in PSSD Sign Score, Median (Week 16, 50 mg QD): −43.0
- Change from Baseline in PSSD Symptom Score, Mean (Week 16, 50 mg QD): −36.7
- Change from Baseline in PSSD Symptom Score, Median (Week 16, 50 mg QD): −36.0
- Subjects Achieving PSSD Sign Score 0 (%) (Week 16, 50 mg QD, Baseline Sign Score ≥1, N=43): (14.0%)
- Subjects Achieving PSSD Symptom Score 0 (%) (Week 16, 50 mg QD, Baseline Symptom Score ≥1, N=42): (23.8%)
- Change from Baseline in PSSD Sign Score, LSMean (Week 16, 50 mg QD): −42.9
- Change from Baseline in PSSD Symptom Score, LSMean (Week 16, 50 mg QD): −35.4
- Change from Baseline in PSSD Sign Score, Mean (Week 16, 100 mg BID): −51.1
- Change from Baseline in PSSD Sign Score, Median (Week 16, 100 mg BID): −55.0
- Change from Baseline in PSSD Symptom Score, Mean (Week 16, 100 mg BID): −44.0
- Change from Baseline in PSSD Symptom Score, Median (Week 16, 100 mg BID): −42.0
- Subjects Achieving PSSD Sign Score 0 (%) (Week 16, 100 mg BID, Baseline Sign Score ≥1, N=42): (14.3%)
- Subjects Achieving PSSD Symptom Score 0 (%) (Week 16, 100 mg BID, Baseline Symptom Score ≥1, N=42): (26.2%)
- Change from Baseline in PSSD Sign Score, LSMean (Week 16, 100 mg BID): −50.6
- Change from Baseline in PSSD Symptom Score, LSMean (Week 16, 100 mg BID): −40.2
- Change from Baseline in PSSD Sign Score, Median (Week 16, 100 mg QD): −45.0
- Change from Baseline in PSSD Symptom Score, Mean (Week 16, 100 mg QD): −29.4
- Change from Baseline in PSSD Symptom Score, Median (Week 16, 100 mg QD): −31.0
- Subjects Achieving PSSD Sign Score 0 (%) (Week 16, 100 mg QD, Baseline Sign Score ≥1, N=43): (16.3%)
- Subjects Achieving PSSD Symptom Score 0 (%) (Week 16, 100 mg QD, Baseline Symptom Score ≥1, N=43): (27.9%)
- Change from Baseline in PSSD Sign Score, LSMean (Week 16, 100 mg QD): −45.3
- Change from Baseline in PSSD Symptom Score, LSMean (Week 16, 100 mg QD): −36.8
- Change from Baseline in PSSD Sign Score, Mean (Week 24, 25 mg BID): −39.8
- Change from Baseline in PSSD Sign Score, Median (Week 24, 25 mg BID): −41.0
- Change from Baseline in PSSD Symptom Score, Mean (Week 24, 25 mg BID): −33.3
- Change from Baseline in PSSD Symptom Score, Median (Week 24, 25 mg BID): −29.0
- Subjects Achieving PSSD Sign Score 0 (%) (Week 24, 25 mg BID, Baseline Sign Score ≥1, N=41): (4.9%)
- Subjects Achieving PSSD Symptom Score 0 (%) (Week 24, 25 mg BID, Baseline Symptom Score ≥1, N=41): (7.3%)
- Change from Baseline in PSSD Sign Score, LSMean (Week 24, 25 mg BID): −37.7
- Change from Baseline in PSSD Symptom Score, LSMean (Week 24, 25 mg BID): −32.1
- Change from Baseline in PSSD Sign Score, Mean (Week 24, 25 mg QD): −38.6
- Change from Baseline in PSSD Sign Score, Median (Week 24, 25 mg QD): −44.5
- Change from Baseline in PSSD Symptom Score, Mean (Week 24, 25 mg QD): −32.9
- Change from Baseline in PSSD Symptom Score, Median (Week 24, 25 mg QD): −33.0
- Subjects Achieving PSSD Sign Score 0 (%) (Week 24, 25 mg QD, Baseline Sign Score ≥1, N=43): (14.0%)
- Subjects Achieving PSSD Symptom Score 0 (%) (Week 24, 25 mg QD, Baseline Symptom Score ≥1, N=43): (20.9%)
- Change from Baseline in PSSD Sign Score, LSMean (Week 24, 25 mg QD): −31.6
- Change from Baseline in PSSD Symptom Score, LSMean (Week 24, 25 mg QD): −25.3
- Change from Baseline in PSSD Sign Score, Mean (Week 24, 50 mg QD): −45.7
- Change from Baseline in PSSD Sign Score, Median (Week 24, 50 mg QD): −47.5
- Change from Baseline in PSSD Symptom Score, Mean (Week 24, 50 mg QD): −38.8
- Change from Baseline in PSSD Symptom Score, Median (Week 24, 50 mg QD): −40.0
- Subjects Achieving PSSD Sign Score 0 (%) (Week 24, 50 mg QD, Baseline Sign Score ≥1, N=43): (9.3%)
- Subjects Achieving PSSD Symptom Score 0 (%) (Week 24, 50 mg QD, Baseline Symptom Score ≥1, N=42): (14.3%)
- Change from Baseline in PSSD Sign Score, LSMean (Week 24, 50 mg QD): −45.3
- Change from Baseline in PSSD Symptom Score, LSMean (Week 24, 50 mg QD): −36.3
- Change from Baseline in PSSD Sign Score, Mean (Week 24, 100 mg BID): −51.6
- Change from Baseline in PSSD Sign Score, Median (Week 24, 100 mg BID): −53.0
- Change from Baseline in PSSD Symptom Score, Mean (Week 24, 100 mg BID): −44.8
- Change from Baseline in PSSD Symptom Score, Median (Week 24, 100 mg BID): −44.0
- Subjects Achieving PSSD Sign Score 0 (%) (Week 24, 100 mg BID, Baseline Sign Score ≥1, N=42): (19.0%)
- Subjects Achieving PSSD Symptom Score 0 (%) (Week 24, 100 mg BID, Baseline Symptom Score ≥1, N=42): (21.4%)
- Change from Baseline in PSSD Sign Score, LSMean (Week 24, 100 mg BID): −50.0
- Change from Baseline in PSSD Symptom Score, LSMean (Week 24, 100 mg BID): −40.3
- Change from Baseline in PSSD Sign Score, Mean (Week 24, 100 mg QD): −41.9
- Change from Baseline in PSSD Sign Score, Median (Week 24, 100 mg QD): −44.0
- Change from Baseline in PSSD Symptom Score, Mean (Week 24, 100 mg QD): −28.4
- Change from Baseline in PSSD Symptom Score, Median (Week 24, 100 mg QD): −26.0
- Subjects Achieving PSSD Sign Score 0 (%) (Week 24, 100 mg QD, Baseline Sign Score ≥1, N=43): (11.6%)
- Subjects Achieving PSSD Symptom Score 0 (%) (Week 24, 100 mg QD, Baseline Symptom Score ≥1, N=43): (25.6%)
- Change from Baseline in PSSD Sign Score, LSMean (Week 24, 100 mg QD): −46.3
- Change from Baseline in PSSD Symptom Score, LSMean (Week 24, 100 mg QD): −36.4
- Change from Baseline in PSSD Sign Score, Mean (Week 24, Placebo → 100 mg QD): −40.2
- Change from Baseline in PSSD Sign Score, Median (Week 24, Placebo → 100 mg QD): −40.0
- Change from Baseline in PSSD Symptom Score, Mean (Week 24, Placebo → 100 mg QD): −26.6
- Change from Baseline in PSSD Symptom Score, Median (Week 24, Placebo → 100 mg QD): −26.0
- Subjects Achieving PSSD Sign Score 0 (%) (Week 24, Placebo → 100 mg QD, Baseline Sign Score ≥1, crossed-over subjects only): (8.6%)
- Subjects Achieving PSSD Symptom Score 0 (%) (Week 24, Placebo → 100 mg QD, Baseline Symptom Score ≥1, crossed-over subjects only): (11.4%)
- Change from Baseline in PSSD Sign Score, LSMean (Week 24, Placebo → 100 mg QD): −40.3
- Change from Baseline in PSSD Symptom Score, LSMean (Week 24, Placebo → 100 mg QD): −29.2
- Change from Baseline in PSSD Sign Score, Mean (Week 32, 25 mg BID): −38.3
- Change from Baseline in PSSD Sign Score, Median (Week 32, 25 mg BID): −38.0
- Change from Baseline in PSSD Symptom Score, Mean (Week 32, 25 mg BID): −31.0
- Change from Baseline in PSSD Symptom Score, Median (Week 32, 25 mg BID): −28.0
- Subjects Achieving PSSD Sign Score 0 (%) (Week 32, 25 mg BID, Baseline Sign Score ≥1, N=41): (4.9%)
- Subjects Achieving PSSD Symptom Score 0 (%) (Week 32, 25 mg BID, Baseline Symptom Score ≥1, N=41): (7.3%)
- Change from Baseline in PSSD Sign Score, LSMean (Week 32, 25 mg BID): −38.9
- Change from Baseline in PSSD Symptom Score, LSMean (Week 32, 25 mg BID): −31.4
- Change from Baseline in PSSD Sign Score, Mean (Week 32, 25 mg QD): −37.2
- Change from Baseline in PSSD Sign Score, Median (Week 32, 25 mg QD): −39.0
- Change from Baseline in PSSD Symptom Score, Mean (Week 32, 25 mg QD): −32.5
- Change from Baseline in PSSD Symptom Score, Median (Week 32, 25 mg QD): −32.0
- Subjects Achieving PSSD Sign Score 0 (%) (Week 32, 25 mg QD, Baseline Sign Score ≥1, N=43): (9.3%)
- Subjects Achieving PSSD Symptom Score 0 (%) (Week 32, 25 mg QD, Baseline Symptom Score ≥1, N=43): (20.9%)
- Change from Baseline in PSSD Sign Score, LSMean (Week 32, 25 mg QD): −31.3
- Change from Baseline in PSSD Symptom Score, LSMean (Week 32, 25 mg QD): −26.2
- Change from Baseline in PSSD Sign Score, Mean (Week 32, 50 mg QD): −39.7
- Change from Baseline in PSSD Sign Score, Median (Week 32, 50 mg QD): −45.0
- Change from Baseline in PSSD Symptom Score, Mean (Week 32, 50 mg QD): −35.9
- Change from Baseline in PSSD Symptom Score, Median (Week 32, 50 mg QD): −32.0
- Subjects Achieving PSSD Sign Score 0 (%) (Week 32, 50 mg QD, Baseline Sign Score ≥1, N=43): (9.3%)
- Subjects Achieving PSSD Symptom Score 0 (%) (Week 32, 50 mg QD, Baseline Symptom Score ≥1, N=42): (14.3%)
- Change from Baseline in PSSD Sign Score, LSMean (Week 32, 50 mg QD): −39.0
- Change from Baseline in PSSD Symptom Score, LSMean (Week 32, 50 mg QD): −32.9
- Change from Baseline in PSSD Sign Score, Mean (Week 32, 100 mg BID): −52.3
- Change from Baseline in PSSD Sign Score, Median (Week 32, 100 mg BID): −54.0
- Change from Baseline in PSSD Symptom Score, Mean (Week 32, 100 mg BID): −45.5
- Change from Baseline in PSSD Symptom Score, Median (Week 32, 100 mg BID): −47.0
- Subjects Achieving PSSD Sign Score 0 (%) (Week 32, 100 mg BID, Baseline Sign Score ≥1, N=42): (21.4%)
- Subjects Achieving PSSD Symptom Score 0 (%) (Week 32, 100 mg BID, Baseline Symptom Score ≥1, N=42): (23.8%)
- Change from Baseline in PSSD Sign Score, LSMean (Week 32, 100 mg BID): −51.0
- Change from Baseline in PSSD Symptom Score, LSMean (Week 32, 100 mg BID): −40.9
- Change from Baseline in PSSD Sign Score, Mean (Week 32, 100 mg QD): −42.3
- Change from Baseline in PSSD Sign Score, Median (Week 32, 100 mg QD): −43.0
